Laboratory results as given in ChEMBL document CHEMBL5226286, “The application of isatin-based multicomponent-reactions in the quest for new bioactive and druglike molecules” (Eur J Med Chem, 2021).
pIC50: −log10 of the molar value. Converted amounts (≈) assume the structure as drawn. The source made the active and inactive calls. No cut-off for these calls is given here.

Key:
[1] = system: Syncephalastrum racemosum; test: Antifungal activity against Syncephalastrum racemosum RCMB 05922; type: functional
Aspergillus fumigatus = test: Antifungal activity against Aspergillus fumigatus RCMB 02568; type: functional
Streptococcus pneumoniae = test: Antibacterial activity against Streptococcus pneumoniae incubated for 24 to 48 hrs by agar diffusion well method; type: functional; details: time 24-48 hrs
Pseudomonas aeruginosa [2] = test: Antibacterial activity against Pseudomonas aeruginosa incubated for 24 to 48 hrs by agar diffusion well method; type: functional; details: time 24-48 hrs
Bacillus subtilis [3] = test: Antibacterial activity against Bacillus subtilis incubated for 24 to 48 hrs by agar diffusion well method; type: functional; details: time 24-48 hrs
Candida albicans = test: Antifungal activity against Candida albicans RCMB 05036; type: functional
Escherichia coli [4] = test: Antibacterial activity against Escherichia coli incubated for 24 to 48 hrs by agar diffusion well method; type: functional; details: time 24-48 hrs
Geotrichum candidum = test: Antifungal activity against Geotrichum candidum RCMB 05097; type: functional
Aspergillus niger = test: Antifungal activity against Aspergillus niger; type: functional
Aspergillus flavus = test: Antifungal activity against Aspergillus flavus; type: functional
A549 = test: Antiproliferative activity against human A549 cells; type: functional, cell-based
Bacillus subtilis [5] = test: Antibacterial activity against Bacillus subtilis NCIM 2079 measured after 12 hrs; type: functional
[6] = system: Mycobacterium tuberculosis; test: Antimycobacterial activity against dormant stage of Mycobacterium tuberculosis H37Ra ATCC 25177 assessed as minimum inhibitory concentration by XTT assay; type: functional
Pseudomonas aeruginosa [7] = test: Antibacterial activity against Pseudomonas aeruginosa NCIM […] measured after 8 hrs; type: functional
Escherichia coli [8] = test: Antibacterial activity against Escherichia coli NCIM 2688 measured after 8 hrs; type: functional
Staphylococcus aureus [9] = test: Antibacterial activity against Staphylococcus aureus NCIM 2010 measured after 12 hrs; type: functional
[10] = system: Mycobacterium tuberculosis; test: Antimycobacterial activity against active stage of Mycobacterium tuberculosis H37Ra ATCC 25177 assessed as minimum inhibitory concentration by XTT assay; type: functional
Pseudomonas aeruginosa [11] = test: Antibacterial activity against Pseudomonas aeruginosa by disc diffusion method; type: functional
Bacillus subtilis [12] = test: Antibacterial activity against Bacillus subtilis by disc diffusion method; type: functional
Escherichia coli [13] = test: Antibacterial activity against Escherichia coli by disc diffusion method; type: functional
Staphylococcus aureus [14] = test: Antibacterial activity against Staphylococcus aureus by disc diffusion method; type: functional
MDA-MB-435 = test: Antiproliferative activity against human MDA-MB-435 cells; type: functional, cell-based
HepG2 = test: cells; type: functional, cell-based; details: Homo sapiens
Description: Antiproliferative activity against human HepG2 cells

MDA-MB-231 = test: cells; type: functional, cell-based; details: Homo sapiens
Description: Antiproliferative activity against human MDA-MB-231 cells

HeLa = test: Antiproliferative activity against human HeLa cells; type: functional, cell-based

Compound: CCOC(=O)N1C/C(=C\c2ccc(Cl)cc2)C(=O)[C@@]2(C1)[C@H](c1ccc(Cl)cc1)CN(C)[C@]21C(=O)Nc2ccccc21
- MIC [1]: 1.95 µg/mL (≈ 3.3 µM)
- MIC (Aspergillus fumigatus): 0.015 µg/mL (≈ 0.0254 µM)
- MIC (Streptococcus pneumoniae): 0.12 µg/mL (≈ 0.203 µM)
- MIC (Pseudomonas aeruginosa [2]): 15.6 µg/mL (≈ 26.5 µM)
- MIC (Bacillus subtilis [3]): 0.015 µg/mL (≈ 0.0254 µM)
- MIC (Candida albicans): 0.06 µg/mL (≈ 0.102 µM)
- MIC (Escherichia coli [4]): 1.95 µg/mL (≈ 3.3 µM)
- MIC (Geotrichum candidum): 0.015 µg/mL (≈ 0.0254 µM)

Compound: CC(C)CC1NC2(C(=O)Nc3ccccc32)C(C(=O)c2ccc(F)cc2)C1c1ccc(Br)cc1 (configuration not stated)
- MIC (Aspergillus niger): 30 µg/mL (≈ 57.5 µM)
- MIC (Aspergillus flavus): 20 µg/mL (≈ 38.4 µM)

Compound: COc1ccc2[nH]cc(C(=O)C3(C#N)C(c4ncc[nH]4)CN(C)C34C(=O)Nc3ccccc34)c2c1 (configuration not stated)
- pIC50 (A549): 4.18

Compound: CCOC(=O)N1C/C(=C\c2ccc(F)cc2F)C(=O)[C@@]2(C1)[C@H](c1ccc(F)cc1F)[C@H]1CCCN1[C@]21C(=O)Nc2ccccc21
- MIC [1]: 1.95 µg/mL (≈ 3.15 µM)
- MIC (Aspergillus fumigatus): 7.81 µg/mL (≈ 12.6 µM)
- MIC (Streptococcus pneumoniae): 0.015 µg/mL (≈ 0.0242 µM)
- MIC (Pseudomonas aeruginosa [2]): inactive
- MIC (Bacillus subtilis [3]): 0.015 µg/mL (≈ 0.0242 µM)
- MIC (Candida albicans): inactive
- MIC (Escherichia coli [4]): 1.95 µg/mL (≈ 3.15 µM)
- MIC (Geotrichum candidum): 0.03 µg/mL (≈ 0.0484 µM)

Compound: CCOC(=O)N1C/C(=C\c2ccc([N+](=O)[O-])cc2)C(=O)[C@@]2(C1)[C@H](c1ccc([N+](=O)[O-])cc1)[C@H]1CCCN1[C@]21C(=O)Nc2ccccc21
- MIC [1]: 0.49 µg/mL (≈ 0.768 µM)
- MIC (Aspergillus fumigatus): 1.95 µg/mL (≈ 3.06 µM)
- MIC (Streptococcus pneumoniae): 1.95 µg/mL (≈ 3.06 µM)
- MIC (Pseudomonas aeruginosa [2]): inactive
- MIC (Bacillus subtilis [3]): 0.06 µg/mL (≈ 0.0941 µM)
- MIC (Candida albicans): inactive
- MIC (Escherichia coli [4]): 15.6 µg/mL (≈ 24.5 µM)
- MIC (Geotrichum candidum): 0.12 µg/mL (≈ 0.188 µM)

Compound: CCOC(=O)N1C/C(=C\c2ccc(OC)cc2)C(=O)[C@@]2(C1)[C@H](c1ccc(OC)cc1)[C@H]1CCCN1[C@]21C(=O)Nc2ccccc21
- MIC [1]: 0.98 µg/mL (≈ 1.61 µM)
- MIC (Aspergillus fumigatus): 1.95 µg/mL (≈ 3.21 µM)
- MIC (Streptococcus pneumoniae): 0.98 µg/mL (≈ 1.61 µM)
- MIC (Pseudomonas aeruginosa [2]): inactive
- MIC (Bacillus subtilis [3]): 0.015 µg/mL (≈ 0.0247 µM)
- MIC (Candida albicans): inactive
- MIC (Escherichia coli [4]): 15.6 µg/mL (≈ 25.7 µM)
- MIC (Geotrichum candidum): 0.49 µg/mL (≈ 0.806 µM)

Compound: CC1(C)CC(=O)C2=C(C1)OC(N)=C(C#N)C21C(=O)N(Cc2cn(Cc3ccc(Cl)cc3)nn2)c2ccc(Br)cc21 (configuration not stated)
- MIC90 (Bacillus subtilis [5]): 3.18 µg/mL (≈ 5.13 µM)
- MIC [6]: 10.6 µg/mL (≈ 17.1 µM)
- MIC90 (Pseudomonas aeruginosa [7]): 1.57 µg/mL (≈ 2.53 µM)
- MIC90 (Escherichia coli [8]): 2.86 µg/mL (≈ 4.61 µM)
- MIC90 (Staphylococcus aureus [9]): 1.09 µg/mL (≈ 1.76 µM)
- MIC [10]: > 50 µg/mL

Compound: CC1(C)CC(=O)C2=C(C1)N(c1ccccn1)C(=O)C21C2=C(Nc3ccccc31)C(=O)CC(C)(C)C2 (configuration not stated)
- MIC (Pseudomonas aeruginosa [11]): inactive
- MIC (Bacillus subtilis [12]): 50 µg/mL (≈ 107 µM)
- MIC (Escherichia coli [13]): 62 µg/mL (≈ 133 µM)
- MIC (Staphylococcus aureus [14]): 125 µg/mL (≈ 267 µM)

Compound: N#CC1=C(N)OC2=C(C(=O)c3ccccc32)C12C(=O)Nc1ccc(Br)cc12 (configuration not stated)
- pIC50 (MDA-MB-435): 5.74

Compound: N#CC1=C(N)OC2=C(C(=O)c3ccccc32)C12C(=O)Nc1ccc(Cl)cc12 (configuration not stated)
- pIC50 (MDA-MB-435): 5.68

Compound: CC1(C)CC(=O)C2=C(C1)N(c1c(Br)cc(Br)cc1Br)C(=O)C21C2=C(Nc3ccccc31)C(=O)CC(C)(C)C2 (configuration not stated)
- MIC (Pseudomonas aeruginosa [11]): 50 µg/mL (≈ 71.1 µM)
- MIC (Bacillus subtilis [12]): 62.5 µg/mL (≈ 88.9 µM)
- MIC (Escherichia coli [13]): 37.5 µg/mL (≈ 53.3 µM)
- MIC (Staphylococcus aureus [14]): 100 µg/mL (≈ 142 µM)

Compound: Cc1ccc(Cn2cc(CN3C(=O)C4(C(C#N)=C(N)OC5=C4C(=O)CC(C)(C)C5)c4cc(Br)ccc43)nn2)cc1 (configuration not stated)
- MIC [6]: 8.89 µg/mL (≈ 14.8 µM)
- MIC [10]: 29.2 µg/mL (≈ 48.8 µM)

Compound: Cc1cc2c(c(=O)o1)C1(C(=O)N(Cc3cn(Cc4ccc(Cl)cc4)nn3)c3ccc(Br)cc31)C(C#N)=C(N)O2 (configuration not stated)
- MIC90 (Bacillus subtilis [5]): 5.27 µg/mL (≈ 8.7 µM)
- MIC [6]: 6.8 µg/mL (≈ 11.2 µM)
- MIC90 (Pseudomonas aeruginosa [7]): 2.33 µg/mL (≈ 3.85 µM)
- MIC90 (Escherichia coli [8]): 2.75 µg/mL (≈ 4.54 µM)
- MIC90 (Staphylococcus aureus [9]): 3.86 µg/mL (≈ 6.37 µM)
- MIC [10]: 6.63 µg/mL (≈ 10.9 µM)

Compound: Cc1coc2c1C(=O)C(=O)c1c-2ccc2c1CCCC2(C)C [TANSHINONE IIA]
- pIC50 (HepG2): 4.62

Compound: CCC(C)Cn1cc(CN2C(=O)C3(C(C#N)=C(N)Oc4c3ccc3[nH]c5ccccc5c43)c3ccccc32)nn1 (configuration not stated)
- pIC50 (MDA-MB-231): 5.42
- pIC50 (HeLa): 4.83

Compound: Cc1ccc2c(c1)C1(C(=O)N2)N2CSCC2C(c2ncc[nH]2)C1(C#N)C(=O)c1c[nH]c2ccccc12 (configuration not stated)
- pIC50 (A549): 4.18

Compound: CO[C@H]1/C=C/O[C@@]2(C)Oc3c(C)c(O)c4c(O)c(c(/C=N/N5CCN(C)CC5)c(O)c4c3C2=O)NC(=O)/C(C)=C\C=C\[C@H](C)[C@H](O)[C@@H](C)[C@@H](O)[C@@H](C)[C@H](OC(C)=O)[C@@H]1C [RIFAMPIN]
- MIC [6]: 0.75 µg/mL (≈ 0.911 µM)
- MIC [10]: 0.51 µg/mL (≈ 0.62 µM)

Compound: CC(C)CC1NC2(C(=O)Nc3ccccc32)C(C(=O)c2ccc(F)cc2)C1c1ccc(Cl)cc1 (configuration not stated)
- MIC (Aspergillus niger): 20 µg/mL (≈ 41.9 µM)
- MIC (Aspergillus flavus): 20 µg/mL (≈ 41.9 µM)
